We go through 3 compounds from patent US10940188B2, “Compounds and methods for treatment and prevention of Flavivirus infection” (priority 2016, dated 2021).

Test [1] concerns ZIKV production from SNB-19 cells. Kind of test: Infectious ZIKV production from SNB-19 cells, focus-forming unit assay on Vero cells. It counts as cell-based, Zika virus. Here is the method: FIGS. 2A-1, 2A-2, 2B-1, 2B-2, 2C-1, 2C-2, 2D-1, 2D-2, 2D-3, 2E-1, 2E-2, and 2F. […] Screening of select compounds for antiviral activity against ZIKV infection was carried out. Glioblastoma SNB-19 cells were treated with indicated compound at 10×AC50 (determined in the primary caspase screen) for 1 hour prior to inoculation with FSS-13025 (at MOI=1). Cells were harvested 24 hours post infection and analyzed by Western blot for ZIKV-NS1 or GAPDH (FIGS. 2A-1 and 2A-2). Titration of PHA-690509 on glioblastoma cells for anti-ZIKV activity. Three strains of virus (FSS-13025, PRVABC59, and MR766; MOI=1) were tested. Shown are sample western blot images (FIG. 2B-1) and ImageJ quantification (FIG. 2B-2). Values represent mean±s.d. (n=3; ***P<0.001; One-way ANOVA). Titration of Emricasan on SNB-19 cells for anti-ZIKV activity was conducted similarly (FIGS. 2C-1 and 2C-2). Values represent mean±s.d. […] Sample western blot (FIG. 2D-2) and ImageJ quantification (FIG. 2D-3) are shown for infection with the PRVABC59 strain (MOI=1). Results for additional strains are shown in FIGS. 6A-F. Values represent mean±s.d. […] The concentration of NS1 in the medium of infected SNB-19 cells collected 24 hours post-infection was quantified by a ZIKV-NS1 ELISA kit (FIGS. 2E-1 and 2E-2). […] Cell culture supernatant was collected 24 hours after infection, and infectious virions were quantified for focus-forming units (FFU) using Vero cells. […] Curves represent best fits for calculating IC50 values, and the insets report the calculated IC50 value for each compound.
FIGS. 18A, 18B, 18C-1, 18C-2, 18D, 18E, 18F, 18G-1, and 18G-2. […] 24 hours post infection, supernatants from SNB-19 cells were titrated onto naïve vero cells plated in a monolayer in 96-well plates for infectious focus-forming unit assay as previously described and focus forming units quantified. […] Immunofluorescence (IF) staining (FIG. 18C-1) and quantification (FIG. 18C-2) of ZIKV positive SNB-19 cells following infection with one of three ZIKV strains and treatment with emetine at 0.01, 0.1, or 1 μM. […]
FIG. 21. […] IC50's calculated using graphpad PRISM software. […]

Another test deals with ZIKV PRVABC59 in hNPCs. Kind of test: ZIKV infection of hNPCs (NS1 Western blot). It is filed as cell-based, Zika virus. On the procedure:
FIGS. 4A-1, 4A-2, 4B-1, 4B-2, 4B-3, 4C-1, 4C-2, 4D-1, and 4D-2. […] Cells were fixed 24 hours post infection and stained for ZIKVE (green) and DAPI (blue). Scale bar: 50 μm. Also shown is the quantification of ZIKV-infected astrocytes with multiple compound concentrations (FIG. 4A-2). Values represent mean±s.d. (n=6; ***P<0.001; One-way ANOVA). Shown in FIG. 4B-3 is virus production from compound-treated iPSC-derived human astrocytes (as in FIG. 2F) (n=3 cultures). Data represent mean±s.d. […] Shown are sample images and quantification (FIGS. 4B-1 and 4B-2). Values represent mean±s.d. (n=2; ***P<0.01; One-way ANOVA). […] Note that Emricasan and PHA-690509 inhibit the increased caspase-3 activity in a concentration-dependent manner in human astrocytes infected with FSS13025-ZIKV or MR766 ZIKV, and improve cell viability as measured by ATP production (FIGS. 4C-1, 4C-2, 4D-1, and 4D-2). […]
SNB-19 cells, BJ astrocytes, or hNPCs were seeded in 12-well plates at approximately 3e5 cells/well. […] Cells and supernatant were harvested 24-48 hours post infection and analyzed by western blot or IFA. Western blot bands were quantified and IFA images counted using ImageJ (NIH, Bethesda, Md.).
SNB-19, BJ astrocyte, or NPCs were seeded in 12-well plates at approximately 3e5 cells/well. […] Cells and supernatant were harvested 24-48 hours post infection and analyzed by western blot or IFA. […]

Each structure is given as a SMILES string.

One may read the IC50 as the concentration at which inhibition is half-maximal. Consider `CC[C@H]1CN2CCc3cc(OC)c(OC)cc3[C@@H]2C[C@@H]1C[C@H]1NCCc2cc(OC)c(OC)cc21` [Emetine], for which the concentration for half-maximal inhibition (IC50) in test [1] (Zika virus, SNB-19 cells, each of three ZIKV strains, read-out: IC50 of infectious ZIKV production) is at most 10 nM. Regarding `O=C(Nc1ccc([N+](=O)[O-])cc1Cl)c1cc(Cl)ccc1O` [Niclosamide], the “inhibition of ZIKV infection in hNPCs” value in the test with ZIKV PRVABC59 in hNPCs is “inhibited ZIKV^PR infection”. In addition, in test [1], the “potency on inhibition of ZIKV replication” value is recorded as “submicromolar range”. Take `CC(=O)Nc1ccc([C@H](C)C(=O)Nc2ncc(C(C)C)s2)cc1` [PHA-690509]: the “inhibition of ZIKV infection in hNPCs” value with ZIKV PRVABC59 in hNPCs is reported as “inhibited ZIKV^PR infection”.
